First: On1c(-c2ccccc2)csc1=S
Second: c1ccc(-c2cc3ccccc3s2)cc1
The melting point of the first is lower: 149 to 151 °C for the first, 171 to 172 °C for the second.

First: CN(c1cccc2cc(C3=NCC(CCO)S3)[nH]c12)S(=O)(=O)c1cccs1 (stereo not drawn)
Second: COc1c(Nc2ncc(Cl)c(Nc3ccccc3S(=O)(=O)N3CCCC3)n2)ccc2c1CCCC(NCCO)C2 (stereo not drawn)
The melting point of the first is higher: 168 to 169 °C for the first, 79 to 82 °C for the second.

Compared with CC1Cc2cc3c(cc2C(c2ccc(NC=O)cc2)=NN1C=O)OCO3 (stereo not drawn), CC1(C)OC(c2ccc(S(C)(=O)=O)cc2)=C(c2ccc3c(c2)OCO3)C1=O is lower in melting point: 193 to 195 °C for the first, 178 to 179 °C for the second.

Compared with FC(F)(F)c1cccc(CSc2nnc(-c3ccc4nccn4c3)o2)c1, N#CCCNC(=O)c1cccc(-c2cccc3c2CN(Cc2cccc(C(F)(F)F)c2)CC3)c1 is lower in melting point: 147 to 148 °C for the first, 114 to 117 °C for the second.

Compared with Nc1cccc(-c2ccc3nnn(Cc4ccc5ncccc5c4)c3n2)c1, Cc1ncccc1COc1ccc2cc(Cn3cc(CCC(=O)O)c(-c4ccccc4)c3)ccc2c1 is lower in melting point: 187 to 189 °C for the first, 163 to 164 °C for the second.

First: COC(c1ccc(Cl)c2nc3n(c12)CCCN3c1ccc(Cl)cc1Cl)C(F)(F)F (stereo not drawn)
Second: CN1c2ccc(Cl)cc2C(c2ccccc2)=Nc2cccnc21
The melting point of the first is higher: 161 to 163 °C for the first, 153 to 156 °C for the second.

Compared with O=C(C=c1sc2n(c1=O)Cc1ccccc1N=2)NC1CCCCC1, COC(=O)N[C@H]1Cc2ccccc2C1=O is lower in melting point: 287 to 288 °C for the first, 157 to 159 °C for the second.

First: CC(C)(C)NC(=O)C(C)(C)N(OC(C)(C)C#N)C(C)(C)C
Second: COC(=O)C=C1CC(NC(=O)OC(C)(C)C)C1 (stereo not drawn)
The melting point of the first is lower: 77 to 79 °C for the first, 79 to 82 °C for the second.

Compared with c1ccc2c(N3CCCC3)nc(N3CCCC3)nc2c1, O=C1c2ccc(N3CCCCC3)cc2C(=O)c2cc3ccccc3cc21 is higher in melting point: 127 to 129 °C for the first, 230 to 233 °C for the second.

First: c1cncc(C2=NNC(c3cccnc3)S2)c1 (stereo not drawn)
Second: O=C(O)c1ccccc1-c1nnc(-c2ccccc2)o1
The melting point of the first is lower: 77 to 78 °C for the first, 173 to 175 °C for the second.

Compared with O=C1NCC(Cc2ccccc2F)O1 (stereo not drawn), Cc1cc(C=O)c2ccccc2c1O is higher in melting point: 113 to 114 °C for the first, 160 to 161 °C for the second.

First: Cc1ccc2c(c1)c(C)c(C(=O)OCc1ccccc1)n2CCC#N
Second: Cc1nc(Br)n(COCc2ccccc2)c1Sc1ccccc1
The melting point of the first is higher: 71 °C for the first, 55 °C for the second.

Going from O=C(O)CCCOc1cccc(CCNC(=O)C2Cc3ccccc3N2S(=O)(=O)c2ccc(-c3cccc(C(F)(F)F)c3)cc2)c1 (stereo not drawn) to O=C(Nc1ccccc1C(F)(F)F)ONC1=Nc2ccc(Cl)cc2C(c2ccccc2)=NC1, the melting point rises from 70 °C to 190 °C.

Compared with CONC(=O)c1ccccc1S(=O)(=O)NC(=O)Nc1nc(C)cc(C)n1, COC(=O)c1ccc2c(c(C)nn2C)c1C(=O)NC(C)(C(N)=O)C(C)C (stereo not drawn) is higher in melting point: 218 °C for the first, 221 to 222 °C for the second.

First: CC(C)c1ccc2cc(O)ccc2c1
Second: CC(C)c1cc(OCCOCc2ccccc2)cc2c1C(=O)N(CSc1ccccc1)S2(=O)=O
The melting point of the first is higher: 109 to 110 °C for the first, 98 to 99 °C for the second.

First: CC(C)COC(=O)Nc1cc(F)c(C2=CCSCC2)c(F)c1
Second: CCOC(=O)c1c[nH]c2cnc3c(F)c(Cl)c(F)cc3c2c1=O
The melting point of the first is lower: 136 to 137 °C for the first, 328 °C for the second.

First: C[C@]12CCC(=O)C=C1CC[C@@H]2c1cn[nH]n1
Second: COc1ccc2c(c1)CCC1C2CCC2(C)C1CCC2N(C)CCCO (stereo not drawn)
The melting point of the first is higher: 126 to 129 °C for the first, 122 to 124 °C for the second.

Compared with CCN(CC)CC1CCCCN1CC(C)(C)NC(=O)N1c2ccccc2C(=O)Nc2cccnc21 (stereo not drawn), CC(C)(C)[Si](C)(C)OC(CCCOC1CCCCO1)COc1ccc2c(=O)cc(-c3ccccc3)oc2c1 (stereo not drawn) is lower in melting point: 160 to 162 °C for the first, 138 to 145 °C for the second.

First: CCCCc1nc(Cl)c(C=O)n1Cc1ccc2oc(-c3ccccc3-c3nnn[nH]3)c(Br)c2c1
Second: CCCCCCc1nc2ccccc2n1Cc1ccc(C(=O)O)cc1
The melting point of the first is lower: 122 to 124 °C for the first, 191 to 193 °C for the second.

First: Cc1nc(N2CCN(Cc3ccc(C(F)(F)F)cc3)C2=O)sc1C(=O)NCc1ccccc1
Second: COc1nc2cc([N+](=O)[O-])c(C)c(C(=O)NCc3ccccc3)c2nc1OC
The melting point of the first is lower: 127 to 128 °C for the first, 171 to 173 °C for the second.

First: CC(C)(C)OC(=O)NC(Cc1cc2ccccc2s1)C(=O)O (stereo not drawn)
Second: O=C(CCSC(=O)c1ccccc1)N[C@@H](Cc1c[nH]cn1)C(=O)O
The melting point of the first is lower: 128 to 129 °C for the first, 170 to 171 °C for the second.

Compared with CCOC(=O)C1=C(N)NC(N)=C(C(=O)OCC)C1c1ccccc1C(F)(F)F, CCOC(=O)c1cc2c(C)cccc2n1CCCC(=O)O is lower in melting point: 191 °C for the first, 132 to 133 °C for the second.

Compared with CC(=O)C1CCCNC1=O (stereo not drawn), CC(=O)N1CCC(C(=O)c2ccc(Cl)c(Cl)c2)CC1 is higher in melting point: 101 to 103 °C for the first, 134 to 136 °C for the second.

Compared with CCOc1c(Cl)ccc(-c2cc(N)c(Cl)c(C(=O)OC)n2)c1F, Nc1ncc(-c2ccc(=O)[nH]n2)c(-c2ccc(Cl)c(Cl)c2)n1 is higher in melting point: 154 to 156 °C for the first, 300 °C for the second.

First: CNc1nc(-c2cccc(-c3cncc(SC)c3)c2)c2cc(OC)c(OC)cc2n1
Second: COc1cc(Nc2nccc(-c3ccc(NC(=O)OC(C)(C)C)cc3)n2)cc(OC)c1OC
The melting point of the first is higher: 184 to 186 °C for the first, 158 to 159 °C for the second.

First: COC(=O)C1CCC2C3CCC4CC(O)CCC4(C)C3C(NC(=O)OCC(Cl)(Cl)Cl)CC12C (stereo not drawn)
Second: CS(=O)(=O)c1ccc(C(CC2CCCC2)C(=O)Nc2ccc(C(=O)O)cn2)cc1 (stereo not drawn)
The melting point of the first is lower: 140 to 143 °C for the first, 191 to 193 °C for the second.

First: O=C(NCc1ccc(Cl)cc1)c1cc2c3c(cc(CN4CCOCC4)cn3c1=O)CCC2
Second: COC(=O)N1CCCC2(Cc3ccc(Br)cc3)C(=O)N(c3cc(Cl)nc(Cl)c3)C(=O)N12 (stereo not drawn)
The melting point of the first is higher: 200 to 201 °C for the first, 81 °C for the second.

Compared with CCn1cc(Br)ccc1=NC=C(S(=O)(=O)c1ccccc1)S(=O)(=O)c1ccccc1, C#Cc1cn(C2CC(O)C(COC(c3ccccc3)(c3ccccc3)c3ccccc3)O2)c(=O)[nH]c1=O (stereo not drawn) is lower in melting point: 233 to 235 °C for the first, 110 °C for the second.

Compared with CCOC(=O)c1[nH]c2ccc(C)cc2c1Sc1ccc(Cl)cc1, CCSc1ccc(-c2coc3ccc(-c4nnc(C)o4)cc23)cc1 is lower in melting point: 158 to 160 °C for the first, 144 to 145 °C for the second.

First: O=C(O)Cc1ccc(C(=O)c2ccccc2)cc1[N+](=O)[O-]
Second: CNC(=O)c1cccc(NC(=O)NCc2ccccc2)c1
The melting point of the first is lower: 168 to 170 °C for the first, 189 to 190 °C for the second.

Compared with Cc1ccccc1C(=O)Nc1ccc(C(=O)N2CCc3cn(C)nc3-c3sccc32)cc1, CN(C)CCNC(=O)c1ccc(C(Cc2ccc(F)cc2)C(=O)Nc2nc3ccccc3o2)cc1 (stereo not drawn) is lower in melting point: 257 to 260 °C for the first, 149 to 151 °C for the second.

First: Cc1nc(C)c(-c2[nH]nc3c2C(=O)c2c(NC(=O)NN4CCOCC4)cccc2-3)s1
Second: Cc1cccc(NC#N)c1N1CCOCC1
The melting point of the first is higher: > 300 °C for the first, 137 to 138 °C for the second.

First: Cc1noc(-c2ccc(Br)c(C)c2)n1
Second: O=C(Oc1cc(F)ccc1Br)c1cc2ccccc2oc1=O
The melting point of the first is lower: 75 to 77 °C for the first, 173 to 175 °C for the second.

First: CCOC(=O)COc1cc2c(c(Cl)c1Cl)C(=O)C(C)(C(C)C)C2Br (stereo not drawn)
Second: COC(=O)c1cc(CSc2ccccc2)cnc1C1=NC(C)(C(C)C)C(=O)N1 (stereo not drawn)
The melting point of the first is lower: 83 to 85 °C for the first, 135 to 138 °C for the second.

First: COc1ccc2c3c(c4cc(OC)c(OC)cc4c2c1)CC1CCCCN1C3 (stereo not drawn)
Second: COc1ccc(N2CCN(c3c(C)c(C)c4c(c3C)C(c3ccc(C)cc3)C(C)(C)O4)CC2)cc1OC (stereo not drawn)
The melting point of the first is higher: 193 to 195 °C for the first, 136 to 139 °C for the second.

First: CC(=O)NC1Cc2cccc3cccc(c23)C1
Second: CCCC1N(C)c2cccc3cccc(c23)N1C
The melting point of the first is higher: 180 to 181 °C for the first, 70 to 71 °C for the second.

First: CNC(=S)n1nc(N)nc1N
Second: CS(=O)c1cc(-c2ccc(Oc3ccccc3)cc2)nn1C(N)=O (stereo not drawn)
The melting point of the first is higher: 176 to 178 °C for the first, 92 °C for the second.

First: CCOC(=O)c1c(N2CCN(C)CC2)c2cnc(-c3ccccc3)nc2n(CC)c1=O
Second: COc1ccccc1N1CCN(CCCC2CCc3onc(-c4ccc(F)cc4)c3C2=O)CC1 (stereo not drawn)
The melting point of the first is higher: 180 to 185 °C for the first, 107 to 108 °C for the second.

First: O=[N+]([O-])c1cc(Cl)c(Cl)cc1N[C@H]1C=C[C@@H](CO)C1
Second: CC(C)Sc1cc2c(cc1Cl)N=C(C(N)=O)NS2(=O)=O
The melting point of the first is lower: 94.5 to 96.5 °C for the first, 279 to 280 °C for the second.

Compared with CC#CCOc1ccc(S(=O)(=O)C(C(=O)NO)c2ccc(-c3cccs3)cc2)cc1 (stereo not drawn), COC(=O)C(=O)c1ccc(OC/C=C/c2ccc3ccccc3c2)cc1 is lower in melting point: 175 °C for the first, 100 to 102 °C for the second.

First: Cc1nc[nH]c1CSCCNc1nc(C)c(Cc2ccccc2)c(=O)[nH]1
Second: CN(CCO)C(=O)Cn1nc(-c2ccccc2O)nc1-c1ccccc1O
The melting point of the first is higher: 140 to 142 °C for the first, 101 to 104 °C for the second.

Compared with COc1cc(C=C(C#N)C(N)=O)cc(OC)c1OC, CCCCc1nc(S(=O)(=O)c2ccc(OC)cc2)c(C(=O)O)n1Cc1cc2c(cc1Cl)OCO2 is higher in melting point: 128 to 130 °C for the first, 154 °C for the second.

First: N#Cc1ccc(-c2n[nH]cc2C(F)(F)F)cc1SCC(F)(F)F
Second: O=C(O)c1ccc(-c2ccc(OCCCCCCO)cc2)cc1
The melting point of the first is lower: 90 to 91 °C for the first, 235 °C for the second.

First: Cc1ccc(S(=O)(=O)N2CCNCCOCCOCCNCCN(S(=O)(=O)c3ccc(C)cc3)CC2)cc1
Second: COc1ccc(N2CCN(c3ccc(N)nc3-c3ccc(C)cc3)CC2)cc1
The melting point of the first is lower: 121 °C for the first, 193 to 200 °C for the second.

First: C1=C(c2ccc3ccccc3c2)CCN(Cc2n[nH]c3ccccc23)C1
Second: CC(C)CCN1C(=O)C(NC(=O)Oc2cccc(N(C)C)c2)C(=O)N(c2ccccc2)c2ccc(Cl)cc21 (stereo not drawn)
The melting point of the first is higher: 225 to 227 °C for the first, 199 to 200 °C for the second.

First: O=C1c2ccccc2S(=O)(=O)N1COc1ccc([N+](=O)[O-])cc1
Second: CSc1ccc(-c2sc(NC(C)=O)nc2/C=C/c2ccc([N+](=O)[O-])cc2)cc1
The melting point of the first is lower: 162 to 164 °C for the first, 228 to 230 °C for the second.

Going from O=C1NC(=Cc2ccc(Cl)cc2)C(=O)C1=NO to O=C(CC1CCN(CCCn2c(=O)[nH]c3ccccc32)CC1)c1ccc(F)cc1, the melting point rises from 190 °C to 208 °C.

CCOC(=O)C1=C(C)NC(C)=C(C(=O)OCCN2CCN(C(c3ccc(C)cc3)c3ccc(C)cc3)CC2)C1c1cccc(Cl)c1 (stereo not drawn) and CC(=O)NCC1CCN(CCOc2ccccc2)CC1 cannot be ordered by melting point: 79 to 81 °C for the first, 79 to 80 °C for the second.

First: CN(C)C(=O)N1CCC(Oc2c(F)c(F)c(F)c(F)c2F)(c2ccccc2)CC1
Second: OC1COC(O)C(F)(F)C1O (stereo not drawn)
The melting point of the first is lower: 92 to 96 °C for the first, 146 to 148 °C for the second.
